Measurements published in the supplement of paper PMC8617591.

Columns and labels:
[1] = tested on: Mycobacterium tuberculosis Erdman (autoluminescent); experiment: GRinf, maximum normalised growth rate inhibition (three-drug combination) (unitless (-1 to 1)); higher = less effect (negative = killing)
Experimental: (§1)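 DiaMOND equipotent three-drug combination dose responses (10 doses, 1.5- or 2-fold spacing, centred on IC90) against autoluminescent M. tuberculosis Erdman in 8 in vitro models. Read-out is OD600, or luminescence for the intracellular and dormancy models, normalised to untreated wells. Hill-fit Einf, AUC25 and GRinf are potency metrics; FIC50 and FIC90 are total Loewe fractional inhibitory concentrations as log2 (negative = synergy).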

[2] = tested on: Mycobacterium tuberculosis Erdman (autoluminescent); experiment: total FIC90 (Loewe) at 90% inhibition, three-drug combination (log2); higher = more antagonistic
Experimental: as §1

[3] = tested on: Mycobacterium tuberculosis Erdman (autoluminescent); experiment: total FIC50 (Loewe) at 50% inhibition, three-drug combination (log2); higher = more antagonistic
Experimental: as §1

[4] = tested on: Mycobacterium tuberculosis Erdman (autoluminescent); experiment: AUC25, normalised area under dose response up to IC25 (three-drug combination) (fraction (0-1)); higher = more potent at low dose
Experimental: as §1

[5] = tested on: Mycobacterium tuberculosis Erdman (autoluminescent); experiment: Einf, fitted maximum growth inhibition of three-drug combination (fraction); higher = stronger maximal inhibition
Experimental: as §1

CC(=O)NC[C@H]1CN(c2ccc(N3CCOCC3)c(F)c2)C(=O)O1 [linezolid] + O=[N+]([O-])c1cn2c(n1)OC[C@@H](OCc1ccc(OC(F)(F)F)cc1)C2 [pretomanid] + CO[C@H]1/C=C/O[C@@]2(C)Oc3c(C)c(O)c4c(O)c(c(/C=N/N5CCN(C)CC5)c(O)c4c3C2=O)NC(=O)/C(C)=C\C=C\[C@H](C)[C@H](O)[C@@H](C)[C@@H](O)[C@@H](C)[C@H](OC(C)=O)[C@@H]1C [rifampicin]
Details	AUC25, [4]	Einf, [5]	GRinf, [1]	total FIC50, [3]	total FIC90, [2]
in vitro model: acidic pH 5.7, time point: constant (~7 days, model-specific)	0.0793	0.893	-0.221	0.745	–
in vitro model: acidic pH 5.7, time point: terminal (~4-5 doublings, model-specific)	0.0641	0.987	-0.265	0.832	0.521
in vitro model: intracellular J774, time point: constant = terminal	–	0.98	-0.287	–	0.288

Details	AUC25, [4]	Einf, [5]	GRinf, [1]	total FIC50, [3]	total FIC90, [2]
in vitro model: butyrate, time point: constant (~7 days, model-specific)	0.0869	0.896	0.0695	0.127	0.148
in vitro model: butyrate, time point: terminal (~4-5 doublings, model-specific)	0.0669	0.948	0.0615	0.00331	-0.305
in vitro model: cholesterol 0.05 mM, time point: constant (~7 days, model-specific)	0.128	0.66	-0.0769	0.0451	–
in vitro model: cholesterol 0.05 mM, time point: terminal (~4-5 doublings, model-specific)	0.127	0.895	-0.203	0.545	-0.354
in vitro model: cholesterol-high 0.2 mM, time point: constant (~7 days, model-specific)	0.0921	0.885	-0.118	0.326	1.11
in vitro model: cholesterol-high 0.2 mM, time point: terminal (~4-5 doublings, model-specific)	0.0881	0.972	-0.505	0.645	0.499
in vitro model: dormancy (butyrate + nitrate, low O2), time point: constant (~7 days, model-specific)	0.0572	0.911	0.214	0.855	0.28
in vitro model: dormancy (butyrate + nitrate, low O2), time point: terminal (~4-5 doublings, model-specific)	0.0401	0.97	-0.0505	0.25	0.29
in vitro model: standard 7H9 glycerol, time point: constant = terminal	0.0674	0.915	0.0995	0.0346	-0.714
in vitro model: valerate, time point: constant (~7 days, model-specific)	0.1	0.89	-0.015	0.394	–
in vitro model: valerate, time point: terminal (~4-5 doublings, model-specific)	0.0505	0.925	0.0379	0.622	0.278

CC(=O)NC[C@H]1CN(c2ccc(N3CCOCC3)c(F)c2)C(=O)O1 [linezolid] + O=[N+]([O-])c1cn2c(n1)OC[C@@H](OCc1ccc(OC(F)(F)F)cc1)C2 [pretomanid] + NC(=O)c1cnccn1 [pyrazinamide]
Details	AUC25, [4]	Einf, [5]	GRinf, [1]	total FIC50, [3]	total FIC90, [2]
in vitro model: acidic pH 5.7, time point: constant (~7 days, model-specific)	0.0949	0.856	-0.473	0.268	–
in vitro model: acidic pH 5.7, time point: terminal (~4-5 doublings, model-specific)	0.0835	0.975	-0.473	0.91	-0.88
in vitro model: intracellular J774, time point: constant = terminal	–	0.986	-0.287	–	0.7

Details	AUC25, [4]	Einf, [5]	GRinf, [1]	total FIC50, [3]	total FIC90, [2]
in vitro model: butyrate, time point: constant (~7 days, model-specific)	0.104	0.885	0.0996	-0.0692	–
in vitro model: butyrate, time point: terminal (~4-5 doublings, model-specific)	0.0881	0.929	0.102	-0.254	0.667
in vitro model: cholesterol 0.05 mM, time point: constant (~7 days, model-specific)	0.14	0.706	-0.191	–	–
in vitro model: cholesterol 0.05 mM, time point: terminal (~4-5 doublings, model-specific)	0.145	0.93	-0.318	0.461	–
in vitro model: cholesterol-high 0.2 mM, time point: constant (~7 days, model-specific)	0.108	0.902	-0.152	0.147	–
in vitro model: cholesterol-high 0.2 mM, time point: terminal (~4-5 doublings, model-specific)	0.113	1	-1	0.0501	0.419
in vitro model: dormancy (butyrate + nitrate, low O2), time point: constant (~7 days, model-specific)	0.056	0.907	0.16	0.49	0.622
in vitro model: dormancy (butyrate + nitrate, low O2), time point: terminal (~4-5 doublings, model-specific)	0.0409	0.985	-0.287	0.47	0.511
in vitro model: standard 7H9 glycerol, time point: constant = terminal	0.0884	0.926	0.0609	0.706	–
in vitro model: valerate, time point: constant (~7 days, model-specific)	0.102	0.808	0.0778	-0.628	–
in vitro model: valerate, time point: terminal (~4-5 doublings, model-specific)	0.0792	0.891	0.177	-0.429	1.41
